According to ChEMBL document CHEMBL3882734, “Therapeutic compounds” (2010):

Experiments:
[1] = target: T1, Prostaglandin E2 receptor EP2 subtype (Homo sapiens, UniProt P43116); experiment: Displacement of [3H]PGE2 from human EP2 receptor expressed in HEK293 cells at pH 7.3 membranes incubated for 60 mins; assay type: cell-based
[2] = target: T1, Prostaglandin E2 receptor EP2 subtype; experiment: Agonist activity at human recombinant EP2 receptor expressed in HEK293 cells assessed as effect on calcium accumulation by Fluo-4 AM dye based FLIPR assay; assay type: functional, cell-based
[3] = system: Canis familiaris; experiment: Effect on ocular surface hyperemia in Beagle dog assessed as maximum ocular surface hyperemia score assigned value at 0.1% administered topically to one eye immediately after first intraocular pressure reading by pneumatonometry; assay type: functional, Canis lupus familiaris
[4] = target: Prostaglandin E2 receptor EP4 subtype (Homo sapiens, UniProt P35408); experiment: Displacement of [3H]PGE2 from human EP4 receptor expressed in HEK293 cells membranes incubated for 60 mins; assay type: cell membranes
[5] = system: Canis familiaris; experiment: Effect on ocular surface hyperemia in Beagle dog assessed as maximum ocular surface hyperemia score assigned value at 0.3% administered topically to one eye immediately after first intraocular pressure reading by pneumatonometry; assay type: functional, Canis lupus familiaris
[6] = system: Rhesus monkey; experiment: Reduction in intraocular pressure in monkey assessed as maximal change in intraocular pressure at 0.3% administered topically to one eye immediately after first intraocular pressure reading by pneumatonometry; assay type: functional, Macaca mulatta
[7] = system: Rhesus monkey; experiment: Reduction in intraocular pressure in monkey assessed as maximal change in intraocular pressure at 0.01% administered topically to one eye immediately after first intraocular pressure reading by pneumatonometry; assay type: functional, Macaca mulatta
[8] = system: Rhesus monkey; experiment: Reduction in intraocular pressure in monkey assessed as maximal change in intraocular pressure at 0.1% administered topically to one eye immediately after first intraocular pressure reading by pneumatonometry; assay type: functional, Macaca mulatta

T1 sequence (P43116 whole entry): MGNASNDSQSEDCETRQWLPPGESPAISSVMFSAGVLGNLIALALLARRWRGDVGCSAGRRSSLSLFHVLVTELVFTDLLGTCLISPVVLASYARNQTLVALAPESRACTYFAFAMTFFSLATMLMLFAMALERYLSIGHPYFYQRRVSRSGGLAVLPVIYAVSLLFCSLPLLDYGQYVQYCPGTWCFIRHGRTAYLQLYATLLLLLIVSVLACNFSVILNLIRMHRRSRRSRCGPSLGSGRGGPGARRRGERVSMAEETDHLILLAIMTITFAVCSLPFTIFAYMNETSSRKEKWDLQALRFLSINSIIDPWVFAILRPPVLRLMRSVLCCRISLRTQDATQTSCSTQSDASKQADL
Sequence of Prostaglandin E2 receptor EP4 subtype (P35408 whole entry): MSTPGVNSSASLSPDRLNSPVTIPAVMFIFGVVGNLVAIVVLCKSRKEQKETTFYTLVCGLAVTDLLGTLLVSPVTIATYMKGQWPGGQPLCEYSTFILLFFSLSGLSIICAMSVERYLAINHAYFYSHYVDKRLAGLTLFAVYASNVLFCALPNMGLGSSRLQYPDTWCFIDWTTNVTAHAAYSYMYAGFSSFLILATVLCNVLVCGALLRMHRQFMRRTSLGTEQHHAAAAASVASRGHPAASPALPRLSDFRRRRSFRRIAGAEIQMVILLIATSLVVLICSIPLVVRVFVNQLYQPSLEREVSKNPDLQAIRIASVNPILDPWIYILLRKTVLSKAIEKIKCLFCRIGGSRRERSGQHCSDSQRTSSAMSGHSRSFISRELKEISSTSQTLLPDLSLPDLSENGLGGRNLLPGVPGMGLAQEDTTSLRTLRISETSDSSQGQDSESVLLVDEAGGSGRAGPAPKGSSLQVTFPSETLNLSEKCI

CCCCCC(O)c1ccc([C@H]2CC[C@@H](F)[C@@H]2CCCCCCC(=O)OC)cc1 (stereo partly specified)
Ki ([1]; hek293): 50 µM | EC50 ([2]; hek293): 50 µM

O=C(O)CCC/C=C\C[C@@H]1[C@@H](c2ccc(C(O)C3CCCCC3)cc2)[C@H](O)C[C@H]1Cl (stereo partly specified)
Activity_index [3]: 1

CCCCCC(=O)c1ccc([C@H]2[C@H](O)CC(=O)[C@@H]2C/C=C\CCCC(=O)O)cc1
Ki [4]: 2.81 µM | EC50 [2]: 0.031 µM

O=C(O)CCC/C=C\C[C@@H]1[C@@H](c2ccc3c(c2)CCC3O)[C@H](O)C[C@H]1Cl (stereo partly specified)
Activity_index [5]: 1 | Activity [6]: 7 mmHg

CCCCCC(O)c1ccc([C@H]2CC[C@@H](Cl)[C@@H]2CCCCCCC(=O)OC)cc1 (stereo partly specified)
Ki ([1]; hek293): 50 µM | EC50 ([2]; hek293): 50 µM

CCCCCC(O)c1cccc([C@H]2CCC(=O)[C@@H]2CCCCCCC(=O)OC)c1 (stereo partly specified)
Ki ([1]; hek293): 50 µM | EC50 ([2]; hek293): 50 µM

CC(C)OC(=O)CCCCCC[C@@H]1[C@@H](c2ccc(C(C)(C)C)cc2)[C@H](O)C[C@H]1Cl
Activity [7]: 8 mmHg

CCCCCC(O)c1ccc([C@H]2CCC=C2CCCCCCC(=O)OC)cc1 (stereo partly specified)
Ki ([1]; hek293): 50 µM | EC50 ([2]; hek293): 50 µM

CCCCCC(O)c1ccc([C@H]2CC[C@@H](Cl)[C@@H]2CCCCCCCO)cc1 (stereo partly specified)
Ki [1]: 50 µM | EC50 [2]: 50 µM

CC(C)OC(=O)CCC/C=C\C[C@@H]1[C@@H](c2ccc(C(C)(C)CO)cc2)[C@H](O)C[C@H]1Cl
Activity [8]: 6 mmHg

CCCCCC(=O)c1ccc([C@@H]2[C@@H](C/C=C\CCCC(=O)O)[C@H](Cl)C[C@H]2O)cc1
Activity [8]: 31 mmHg

CCCCCC(O)c1ccc([C@@H]2[C@@H](C/C=C\CCCC(=O)OC(C)C)[C@H](Cl)C[C@H]2Cl)cc1 (stereo partly specified)
Activity [8]: 19 mmHg

CCCCCC(=O)c1ccc([C@@H]2[C@@H](C/C=C\CCCC(=O)OC(C)C)[C@H](Cl)C[C@H]2O)cc1
Activity [8]: 20 mmHg

CC(C)OC(=O)CCC/C=C\C[C@@H]1[C@@H](c2ccc(C(O)C3CCCCC3)cc2)[C@H](O)C[C@H]1Cl (stereo partly specified)
Activity [7]: 5 mmHg
